Assay results reported in EP0652009A1, “Identification and use of protease inhibitors” (ELI LILLY AND COMPANY, priority 1993, dated 1995).
Non-standard residues stand in square brackets, D forms with d. Residues, ends and D or L forms follow the SMILES beside them. Sta = CC(C)C[C@H](N)[C@@H](O)CC(=O)O; N(iPr)Gly = CC(C)NCC(=O)O

Tested on: βAP production
Assay: Assay 4: βAP production inhibition (cellular assay, ELISA of conditioned media, normalised to MTT)
Format: cell-based, human; Chinese hamster
Details: compound at 10 µg/mL; 293 751 SWE and CHO 751 SWE cells (table does not say which); βAP ELISA divided by MTT result, relative to drug-free control; mean and standard deviation of at least six replicate assays
Description: The test system used to measure the βAP production inhibition activity is typically a cellular assay or an animal model. Preferably, the βAP production inhibition activity is obtained by direct measurement of βAP production in a cellular assay, as described in WO9410569, the full disclosure of which is incorporated herein by reference. This assay is exemplified in Assay 4, below.
Two cell lines (human kidney cell line 293 and Chinese hamster ovary cell line CHO) were stably transfected with the gene for APP-751 containing the double mutation Lys₆₅₁-Met₆₅₂ to Asn₆₅₁-Leu₆₅₂ (APP-751 numbering) commonly called the Swedish mutation using the method described in Citron et al., (1992) Nature 360:672-674. The transfected cell lines were designated as 293 751 SWE and CHO 751 SWE, and were plated in Corning 96 well plates at 2.5x10⁴ or 1x10⁴ cells per well respectively in Dulbecco's minimal essential media plus 10% fetal bovine serum. Following overnight incubation at 37°C in an incubator equilibrated with 10% carbon dioxide (CO₂), the media were removed and replaced with 200 µL per well of media containing an aspartyl protease inhibitor. After a two hour pretreatment period, the media were again removed and replaced with fresh media containing the aspartyl protease inhibitor and the cells were incubated for an additional two hours.
After treatment, plates were centrifuged in a Beckman GPR at 1200 rpm for five minutes at room temperature to pellet cellular debris from the conditioned media. From each well, 100µL of conditioned media were transferred into an ELISA plate precoated with antibody 266 against βAP-13-28 (Seubert et al., supra.) and stored at 4°C overnight. An ELISA assay employing labelled antibody 6C6 (against βAP-1-16) was run the next day to measure the amount of βAP produced.
Cytotoxic effects of the compounds were measured by a modification of the method of Hansen et al., (1989) J. Immun. Meth. 119:203-210. To the cells remaining in the tissue culture plate, was added 25 µL of a 3,(4,5-dimethylthiazol-2-yl)2,5-diphenyltetrazolium bromide (MTT) stock solution (5 mg/mL) to a final concentration of 1 mg/mL. Cells were incubated at 37°C for one hour, and cellular activity was stopped by the addition of an equal volume of MTT lysis buffer (20% w/v sodium dodecylsulfate in 50% DMF, pH 4.7). Complete extraction was achieved by overnight shaking at room temperature. The difference in the OD562nm and the OD650nm was measured in a Molecular Devices UVmax microplate reader as an indicator of the cellular viability.
The results of the βAP ELISA were fit to a standard curve and expressed as ng/mL βAP peptide. In order to normalize for cytotoxicity, these βAP results were divided by the MTT results and expressed as a percentage of the results from a drug-free control.
The compounds prepared above in Examples 9, 12, 13, 20-23, 23A, 24, 30, 41-43, 45, and 48 were assayed for βAP production inhibition activity in cells at 10 µg/mL using Assay 4. The results presented in Assay Table 4, below, are the mean and standard deviation of at least six replicate assays. Assay Table 4

Compound | βAP Production Inhibition [%] | inhibition at 10 µg/mL [%]
CC(C)C[C@H](NC(=O)[C@@H](NC(=O)CN)C(C)C)[C@@H](O)CC(=O)N[C@@H](C)C(=O)N[C@H](C(=O)O)[C@@H](C)O [Example 45, Gly-Val-Sta-Ala-Thr-OH] (H-GV[Sta]AT-OH) | 3.3 ± 1.1 | –
CC(=O)NCC(=O)N[C@H](C(=O)N[C@H](C(=O)N[C@@H](CC(C)C)[C@@H](O)CC(=O)N[C@@H](C)C(=O)N[C@H](C(=O)O)[C@@H](C)O)C(C)C)C(C)C [Example 41, CH3C(O)-Gly-Val-Val-Sta-Ala-Thr-OH] (Ac-GVV[Sta]AT-OH) | -6.2 ± 6.2 | –
CC[C@H](C)[C@H](NC(=O)C[C@H](O)[C@H](CC(C)C)NC(=O)[C@@H](NC(=O)CNC(C)C)C(C)C)C(=O)N[C@@H](C)C(=O)N[C@H](C(=O)O)[C@@H](C)O [Example 48, (CH3)2CH-Gly-Val-Sta-Ile-Ala-Thr-OH] (H-[N(iPr)Gly]V[Sta]IAT-OH) | 1.6 ± 19.8 | –
Cc1cccc2ccc(C(=O)N[C@@H](CC(N)=O)C(=O)N[C@@H](Cc3ccccc3)[C@H](O)Cc3ccccc3C(=O)NC(C)(C)C)nc12 [Example 9, [1S-(1R*,4R*,5S*)]-N-(1-(2-Amino-2-oxoethyl)-2-oxo-3-aza-4-phenylmethyl-5-hydroxy-6-(2-(1-t-butylamino-1-oxomethyl)phenyl)hexyl)-8-methylquinolin-2-yl carboxamide] | – | 44.4 ± 7.7
CC(C)C(NC(=O)C(Cc1cccc2ccccc12)NC(=O)OC(C)(C)C)C(=O)NC(Cc1ccccc1)C(O)Cc1ccccc1C(=O)NC(C)(C)C (stereo not drawn) [Example 23, [2R-(2R*,3S*,6S*,9S*)]-N-t-Butyl-2-[2-hydroxy-3-phenylmethyl-4,7-diaza-5,8-dioxo-6-(1-methylethyl)-9-N(t-butoxycarbonyl)amino-10-naphth-1-yl]decyl benzamide] | – | 96.3 ± 2.8
CC(C)C[C@H](NC(=O)[C@@H](NC(=O)[C@@H](NC(=O)CN)C(C)C)C(C)C)[C@@H](O)CC(=O)N[C@@H](C)C(=O)N[C@H](C(=O)O)[C@@H](C)O [Example 43, Gly-Val-Val-Sta-Ala-Thr-OH] (H-GVV[Sta]AT-OH) | 16.2 ± 8.5 | –
CC(C)C[C@H](NC(=O)[C@@H](NC(=O)[C@@H](NC(=O)CNC(C)C)C(C)C)C(C)C)[C@@H](O)CC(=O)N[C@@H](C)C(=O)N[C@H](C(=O)O)[C@@H](C)O [Example 42, (CH3)2CH-Gly-Val-Val-Sta-Ala-Thr-OH] (H-[N(iPr)Gly]VV[Sta]AT-OH) | 13.1 ± 7.5 | –
Cc1ccc(C(=O)C2NCCc3ccccc32)cc1C(=O)N[C@@H](Cc1ccccc1)[C@H](O)CN1C[C@H]2CCCC[C@H]2C[C@H]1C(=O)NC(C)(C)C (relative stereo) [Example 30, [3S-(3R*,4aR*,8aR*,2'S*,3'R*)]-2-[2'-Hydroxy-3'-phenylmethyl-4'-aza-5'-oxo-5'-(3''-[1''',2''',3''',4'''-tetrahydroisoquinolin-1'''-ylcarbonyl]-6''-methyl)phenyl]pentyl-decahydroisoquinoline-3-N-t-butylcarboxamide] | 69.2 ± 2.2 | –
CC(C)C(NC(=O)C(Cc1cccc2ccccc12)NC(=O)OC(C)(C)C)C(=O)NC(Cc1ccccc1)C(O)Cc1ccccc1C(=O)NC(C)(C)C (stereo not drawn) [Example 24, [2R-(2R*,3S*,6S*,9R*)]-N-t-Butyl-2-[2-hydroxy-3-phenylmethyl-4,7-diaza-5,8-dioxo-6-(1-methylethyl)-9-N(t-butoxycarbonyl)amino-10-naphth-1-yl]decyl benzamide] | 92.7 ± 1.4 | –
